Values after ≈ are worked out from the molar mass of the structure shown. Active and inactive are the calls of the source. No cut-off for these calls is given here. Positions of bridges follow the written chain, without caps; N, C: chain ends. Residues, ends and D or L forms follow the SMILES beside them.
Columns and labels:
Staphylococcus aureus [1] = test: Antibacterial activity against Staphylococcus aureus ATCC 25923 assessed as reduction in bacterial survival rate; type: functional; conditions: for LC50: Staphylococcus aureus, ATCC 25923, read-out: LD50 (the source's name)
Escherichia coli [2] = test: Antibacterial activity against Escherichia coli ATCC 25922 assessed as reduction in bacterial survival rate; type: functional; conditions: for LC50: Escherichia coli, ATCC 25922, read-out: LD50 (the source's name)
[3] = Induction of hemolysis in mouse erythrocytes at 12.5 and 25 ug/ml incubated at 37 degC for 15 mins; type: cell-based; conditions: erythrocyte, 0.25 h
[4] = Binding affinity to Staphylococcus aureus lipoteichoic acid assessed as equilibrium dissociation constant by bilayer interferometry
Escherichia coli [5] = test: Antibacterial activity against Escherichia coli ATCC 25922 assessed as reduction in bacterial survival rate at 12.5 ug/ml in presence of >75 mM NaCl; type: functional, organism-based
[6] = Binding affinity to Rd mutant containing Escherichia coli F583 lipid A assessed as equilibrium dissociation constant in presence of 75 mM NaCl by bilayer interferometry
Escherichia coli [7] = test: Antibacterial activity against Escherichia coli ATCC 25922 assessed as reduction in bacterial survival rate at 25 ug/ml in presence of 10% mouse serum; type: functional, organism-based
Escherichia coli [8] = test: Induction of outer membrane disintegration in Escherichia coli ATCC 25922 at 6.25 ug/ml by NPN uptake assay; type: functional, organism-based
Escherichia coli [9] = test: Induction of inner membrane disintegration in Escherichia coli ML35 ATCC 43827 at 1.6 to 6.3 ug/ml by ONPG hydrolysis assay; type: functional, organism-based
[10] = Binding affinity to Rd mutant containing Escherichia coli F583 lipid A assessed as equilibrium dissociation constant by bilayer interferometry
Staphylococcus aureus [11] = test: Antibacterial activity against Staphylococcus aureus ATCC 25923 assessed as reduction in bacterial survival rate at 25 ug/ml in presence of 10% mouse serum; type: functional, organism-based
[12] = Induction of hemolysis in mouse erythrocytes up to 100 ug/ml incubated at 37 degC for 15 mins; type: cell-based, Erythrocyte; conditions: read-out: Activity
Escherichia coli [13] = test: Antibacterial activity against Escherichia coli ATCC 25922 assessed as reduction in bacterial survival rate 12.5 ug/ml in presence of 150 mM NaCl; type: functional, organism-based
[14] = Stability in presence of 400 U/L trypsin assessed as compound degradation at 100 ug/ml after 4 to 12 hrs by HPLC and LC-MS method; type: physicochemical; conditions: isolated protein
Escherichia coli [15] = test: Induction of inner membrane disintegration in Escherichia coli ML35 ATCC 43827 at 0.78 to 1.6 ug/ml by ONPG hydrolysis assay; type: functional, organism-based

Row | SMILES | LD90 (Staphylococcus aureus [1]) [µg/mL] | LC50 (Staphylococcus aureus [1]) [µg/mL] | LD90 (Escherichia coli [2]) [µg/mL] | LC50 (Escherichia coli [2]) [µg/mL] | Activity [3] | Kd [4] [nM] | Activity (Escherichia coli [5]) | Kd [6] [nM] | Activity (Escherichia coli [7]) | Activity (Escherichia coli [8]) | Activity (Escherichia coli [9]) | Kd [10] [nM] | Activity (Staphylococcus aureus [11]) | hemolysis at 0.25 h [12] [%] | Activity (Escherichia coli [13]) | Stability [14] | Activity (Escherichia coli [15])
1 | CC[C@H](C)[C@@H]1NC(=O)[C@H](CCC(=O)O)NC(=O)[C@@H]2CSSC[C@@H]3NC(=O)[C@H](Cc4ccc(O)cc4)NC(=O)[C@@H](NC(=O)[C@@H](NC(=O)[C@H](C)N)[C@@H](C)O)CSSC[C@@H](C(=O)N[C@@H](CCCNC(=N)N)C(=O)O)NC(=O)[C@H](CSSC[C@H](NC(=O)[C@H](CCCNC(=N)N)NC(=O)CNC(=O)[C@H](CCCNC(=N)N)NC(=O)[C@H](CCCNC(=N)N)NC3=O)C(=O)N[C@@H](C)C(=O)N[C@@H]([C@@H](C)O)C(=O)N[C@@H](CCCNC(=N)N)C(=O)N[C@@H](CCC(=O)O)C(=O)N[C@@H](CO)C(=O)N[C@@H](CC(C)C)C(=O)N[C@@H](CO)C(=O)NCC(=O)N[C@@H](C(C)C)C(=O)N2)NC(=O)[C@H](CC(C)C)NC(=O)[C@H](CCCNC(=N)N)NC(=O)[C@H](Cc2ccc(O)cc2)NC(=O)[C@H](CC(C)C)NC(=O)[C@H](CCCNC(=N)N)NC(=O)CNC(=O)[C@H](CO)NC1=O (H-ATCYCRRGRCATRESLSGVCEISGRLYRLCCR-OH; disulfide 3-31, 5-20, 10-30) | 2.8 | 1.3 (≈ 0.357 µM) | 5 | 1.4 (≈ 0.385 µM) | – | – | – | – | – | – | – | – | – | – | – | – | –
2 | CC[C@H](C)[C@@H]1NC(=O)[C@H](CCC(=O)O)NC(=O)[C@@H]2CSSC[C@@H]3NC(=O)[C@H](Cc4ccc(O)cc4)NC(=O)[C@@H](NC(=O)[C@@H](NC(=O)[C@H](C)N)[C@@H](C)O)CSSC[C@@H](C(=O)N[C@@H](CCCNC(=N)N)C(=O)O)NC(=O)[C@H](CSSC[C@H](NC(=O)[C@H](CCCNC(=N)N)NC(=O)CNC(=O)[C@H]([C@@H](C)O)NC(=O)[C@H](CCCNC(=N)N)NC3=O)C(=O)N[C@@H](C)C(=O)N[C@@H]([C@@H](C)O)C(=O)N[C@@H](CCCNC(=N)N)C(=O)N[C@@H](CCC(=O)O)C(=O)N[C@@H](CO)C(=O)N[C@@H](CC(C)C)C(=O)N[C@@H](CO)C(=O)NCC(=O)N[C@@H](C(C)C)C(=O)N2)NC(=O)[C@H](CC(C)C)NC(=O)[C@H](CCCNC(=N)N)NC(=O)[C@H](Cc2ccc(O)cc2)NC(=O)[C@H](CC(C)C)NC(=O)[C@H](CCCNC(=N)N)NC(=O)CNC(=O)[C@H](CCCNC(=N)N)NC1=O (H-ATCYCRTGRCATRESLSGVCEIRGRLYRLCCR-OH; disulfide 3-31, 5-20, 10-30) | 3 | 1.5 (≈ 0.411 µM) | 6 | 1.7 (≈ 0.466 µM) | – | – | – | – | – | – | – | – | – | – | – | – | –
3 | CC[C@H](C)[C@H](NC(=O)CN)C(=O)NCC(=O)N[C@@H](C)C(=O)N[C@H](C(=O)N[C@@H](CC(C)C)C(=O)N[C@@H](CCCCN)C(=O)N[C@H](C(=O)N[C@@H](CC(C)C)C(=O)N[C@H](C(=O)N[C@H](C(=O)NCC(=O)N[C@@H](CC(C)C)C(=O)N1CCC[C@H]1C(=O)N[C@@H](C)C(=O)N[C@@H](CC(C)C)C(=O)N[C@H](C(=O)N[C@@H](CO)C(=O)N[C@@H](Cc1c[nH]c2ccccc12)C(=O)N[C@H](C(=O)N[C@@H](CCCCN)C(=O)N[C@@H](CCCNC(=N)N)C(=O)N[C@@H](CCCCN)C(=O)N[C@@H](CCCNC(=N)N)C(=O)N[C@@H](CCC(N)=O)C(=O)N[C@@H](CCC(N)=O)C(N)=O)[C@@H](C)CC)[C@@H](C)CC)[C@@H](C)O)[C@@H](C)O)C(C)C)C(C)C [MELITTIN] | – | – | – | – | Toxic | – | – | – | – | – | – | – | – | – | – | – | –
4 | CC[C@H](C)[C@@H]1NC(=O)[C@H](CCC(=O)O)NC(=O)[C@@H]2CSSC[C@@H]3NC(=O)[C@H](Cc4ccc(O)cc4)NC(=O)[C@@H](NC(=O)[C@@H](NC(=O)[C@H](C)N)[C@@H](C)O)CSSC[C@@H](C(=O)N[C@@H](CCCNC(=N)N)C(=O)O)NC(=O)[C@H](CSSC[C@H](NC(=O)[C@H](CCCNC(=N)N)NC(=O)CNC(=O)[C@H]([C@@H](C)O)NC(=O)[C@H](CCCNC(=N)N)NC3=O)C(=O)N[C@@H](C)C(=O)N[C@@H]([C@@H](C)O)C(=O)N[C@@H](CCCNC(=N)N)C(=O)N[C@@H](CCC(=O)O)C(=O)N[C@@H](CO)C(=O)N[C@@H](CC(C)C)C(=O)N[C@@H](CO)C(=O)NCC(=O)N[C@@H](C(C)C)C(=O)N2)NC(=O)[C@H](CC(C)C)NC(=O)[C@H](CCCNC(=N)N)NC(=O)[C@H](Cc2ccc(O)cc2)NC(=O)[C@H](CC(C)C)NC(=O)[C@H](CCCNC(=N)N)NC(=O)CNC(=O)[C@H](CO)NC1=O (H-ATCYCRTGRCATRESLSGVCEISGRLYRLCCR-OH; disulfide 3-31, 5-20, 10-30) | 3.4 | 1.9 (≈ 0.53 µM) | 6.6 | 3.3 (≈ 0.921 µM) | – | 220 | inactive | 210 | inactive | Active | Active | 120 | inactive | – | – | – | –
5 | CC[C@H](C)[C@@H]1NC(=O)[C@H](CCCNC(=N)N)NC(=O)[C@@H]2CSSC[C@@H]3NC(=O)[C@H](Cc4ccc(O)cc4)NC(=O)[C@@H](NC(=O)[C@@H](NC(=O)[C@H](C)N)[C@@H](C)O)CSSC[C@@H](C(=O)N[C@@H](CCCNC(=N)N)C(=O)O)NC(=O)[C@H](CSSC[C@H](NC(=O)[C@H](CCCNC(=N)N)NC(=O)CNC(=O)[C@H](CCCNC(=N)N)NC(=O)[C@H](CCCNC(=N)N)NC3=O)C(=O)N[C@@H](C)C(=O)N[C@@H]([C@@H](C)O)C(=O)N[C@@H](CCCNC(=N)N)C(=O)N[C@@H](CCC(=O)O)C(=O)N[C@@H](CO)C(=O)N[C@@H](CC(C)C)C(=O)N[C@@H](CO)C(=O)NCC(=O)N[C@@H](C(C)C)C(=O)N2)NC(=O)[C@H](CC(C)C)NC(=O)[C@H](CCCNC(=N)N)NC(=O)[C@H](Cc2ccc(O)cc2)NC(=O)[C@H](CC(C)C)NC(=O)[C@H](CCCNC(=N)N)NC(=O)CNC(=O)[C@H](CO)NC1=O (H-ATCYCRRGRCATRESLSGVCRISGRLYRLCCR-OH; disulfide 3-31, 5-20, 10-30) | 1.4 | < 0.39 | 1.8 | 0.8 (≈ 0.218 µM) | – | – | – | 48 | Active | – | – | – | Active | ≤ 1 | Active | Stable | –
6 | CC[C@H](C)[C@@H]1NC(=O)[C@H](CCC(=O)O)NC(=O)[C@@H]2CSSC[C@@H]3NC(=O)[C@H](Cc4ccc(O)cc4)NC(=O)[C@@H](NC(=O)[C@@H](NC(=O)[C@H](C)N)[C@@H](C)O)CSSC[C@@H](C(=O)N[C@@H](CCCNC(=N)N)C(=O)O)NC(=O)[C@H](CSSC[C@H](NC(=O)[C@H](CCCNC(=N)N)NC(=O)CNC(=O)[C@H]([C@@H](C)O)NC(=O)[C@H](CCCNC(=N)N)NC3=O)C(=O)N[C@@H](C)C(=O)N[C@@H]([C@@H](C)O)C(=O)N[C@@H](CCCNC(=N)N)C(=O)N[C@@H](CCC(=O)O)C(=O)N[C@@H](CO)C(=O)N[C@@H](CC(C)C)C(=O)N[C@@H](CO)C(=O)NCC(=O)N[C@@H](C(C)C)C(=O)N2)NC(=O)[C@H](CC(C)C)NC(=O)[C@H](CCCNC(=N)N)NC(=O)[C@H](Cc2ccc(O)cc2)NC(=O)[C@H](CC(C)C)NC(=O)[C@H](CCCNC(=N)N)NC(=O)[C@H](CCCNC(=N)N)NC(=O)[C@H](CO)NC1=O (H-ATCYCRTGRCATRESLSGVCEISRRLYRLCCR-OH; disulfide 3-31, 5-20, 10-30) | 3.1 | 1.5 (≈ 0.407 µM) | 5.8 | 1.6 (≈ 0.435 µM) | – | – | – | – | – | – | – | – | – | – | – | – | –
7 | CC[C@H](C)[C@@H]1NC(=O)[C@H](CCCNC(=N)N)NC(=O)[C@@H]2CSSC[C@@H]3NC(=O)[C@H](Cc4ccc(O)cc4)NC(=O)[C@@H](NC(=O)[C@@H](NC(=O)[C@H](C)N)[C@@H](C)O)CSSC[C@@H](C(=O)N[C@@H](CCCNC(=N)N)C(=O)O)NC(=O)[C@H](CSSC[C@H](NC(=O)[C@H](CCCNC(=N)N)NC(=O)CNC(=O)[C@H]([C@@H](C)O)NC(=O)[C@H](CCCNC(=N)N)NC3=O)C(=O)N[C@@H](C)C(=O)N[C@@H]([C@@H](C)O)C(=O)N[C@@H](CCCNC(=N)N)C(=O)N[C@@H](CCC(=O)O)C(=O)N[C@@H](CO)C(=O)N[C@@H](CC(C)C)C(=O)N[C@@H](CO)C(=O)NCC(=O)N[C@@H](C(C)C)C(=O)N2)NC(=O)[C@H](CC(C)C)NC(=O)[C@H](CCCNC(=N)N)NC(=O)[C@H](Cc2ccc(O)cc2)NC(=O)[C@H](CC(C)C)NC(=O)[C@H](CCCNC(=N)N)NC(=O)CNC(=O)[C@H](CO)NC1=O (H-ATCYCRTGRCATRESLSGVCRISGRLYRLCCR-OH; disulfide 3-31, 5-20, 10-30) | 2.2 | 0.6 (≈ 0.166 µM) | 3.1 | 1.3 (≈ 0.36 µM) | – | 85 | – | – | – | Active | – | 33 | – | – | – | – | Active

Source: ChEMBL document CHEMBL3414515, “Design of a potent antibiotic peptide based on the active region of human defensin 5” (J Med Chem, 2015)
